Data as given in article PMC4789100 (Environment international, 2009).
Values joined by “and” are separate entries in the source; they are usually repeats but may differ in a detail not shown here. Equal values may be shown once. “Also recorded” adds a separate entry of the source. Read-outs that look alike come from different tables or passages of the source.

Experiments:
[1] = target: T1, sheep placental cytosolic estrogen sulfotransferase (estradiol as substrate) (Ovis aries, UniProt A0ACI6NYW9); format: biochemical
T1 sequence (A0ACI6NYW9 1-296): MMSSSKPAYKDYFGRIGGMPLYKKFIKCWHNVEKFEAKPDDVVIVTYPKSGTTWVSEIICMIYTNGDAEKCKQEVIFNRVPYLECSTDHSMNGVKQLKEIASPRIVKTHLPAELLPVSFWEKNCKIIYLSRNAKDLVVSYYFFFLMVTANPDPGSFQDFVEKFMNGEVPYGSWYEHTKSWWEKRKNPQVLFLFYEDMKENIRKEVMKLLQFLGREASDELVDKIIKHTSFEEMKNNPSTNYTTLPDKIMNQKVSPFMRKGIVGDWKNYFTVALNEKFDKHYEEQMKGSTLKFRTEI

expressed human SULT1E1 = details: cited from earlier work
[2] = cited from earlier work
sheep placental cytosol = experiment: Triclosan sulfonation in placental cytosol with 35S-PAPS; format: in vitro ADME
[3] = as above; format: in vitro ADME, sheep; details: sheep, sheep placental cytosol, pH 7.4
[4] = tested on: sheep placental microsomes; experiment: Triclosan glucuronidation in placental microsomes with 14C-UDPGA; format: in vitro ADME; details: 1 μM Triclosan; limit of detection <0.5 pmol/min/mg protein
[5] = estradiol as substrate, mean±S.D., n=3

SMILES: O=C(Nc1ccc(Cl)c(Cl)c1)Nc1ccc(Cl)cc1O [2′OH-TCC, 2′-hydroxy-triclocarban]
- IC50 ([1]; read-out: IC50 for inhibition of estradiol sulfonation, 1 nM estradiol): 310 ± 40 nM

SMILES: Oc1c(Cl)cc(-c2ccc(Cl)c(Cl)c2)cc1Cl [4′OH-CB79, 4-hydroxy-3,3′,4′,5-tetrachlorobiphenyl]
- IC50 (expressed human SULT1E1; ref Kester et al., 2000): 0.2 to 0.6 nM

SMILES: C[C@]12CC[C@@H]3c4ccc(O)cc4CC[C@H]3[C@@H]1CC[C@@H]2O [Estradiol, 17-beta-estradiol]
- Estradiol concentration above which partial substrate inhibition is displayed (expressed human SULT1E1; ref Zhang et al.,1998): above 20 nM
- Ki, constant for partial inhibition of estradiol sulfotransferase activity by substrate [1, 5]: 54.7 ± 25.3 nM
- Vmin, plateau low rate at high estradiol concentrations [1, 5]: 12.1±7.7 pmol/min/mg protein

SMILES: Oc1cc(Cl)ccc1Oc1ccc(Cl)cc1Cl [Triclosan, 5-chloro-2(2,4-dichlorophenoxy)-phenol]
- Reported mean concentration of total Triclosan ([2]; Breast milk, Sweden, Control female, ref Allmyr et al., 2006b): 0.02 ng/g and 0.07 nM
- Reported mean concentration of total Triclosan ([2]; Breast milk, Sweden, Exposed female, ref Allmyr et al., 2006b): 0.54 ng/g and 1.87 nM
- Reported mean concentration of total Triclosan ([2]; Serum, Australia, Female 2002, ref Allmyr et al., 2008): 14 ng/g and 48.4 nM
- Reported mean concentration of total Triclosan ([2]; Serum, Australia, Female 2004, ref Allmyr et al., 2008): 7.2 ng/g and 24.9 nM
- Reported mean concentration of total Triclosan ([2]; Serum, Australia, Male 2004, ref Allmyr et al., 2008): 12 ng/g and 41.5 nM
- Reported mean concentration of total Triclosan ([2]; Serum, Sweden, Control female, ref Allmyr et al., 2006b): 0.07 ng/g and 0.25 nM
- Reported mean concentration of total Triclosan ([2]; Serum, Sweden, Exposed female, ref Allmyr et al., 2006b): 16 ng/g and 55.3 nM
- Reported mean concentration of total Triclosan ([2]; Urine, United States, Female, ref Calafat et al., 2008): 10.6 μg/L and 36.6 nM
- Reported mean concentration of total Triclosan ([2]; Urine, United States, Male, ref Calafat et al., 2008): 16.2 μg/L and 56.0 nM
- Sulfonation apparent Vmax (sheep placental cytosol; Triclosan 0.1 to 10 μM, mean±S.D. of three individual samples): 160±26 pmol/min/mg protein
- Fraction of Triclosan that would be sulfonated (sheep placental cytosol; conditions of estradiol or estrone sulfonation assay with 1 nM Triclosan): less than 0.1%
- Km at 15 min [3]: 1.14 ± 0.18 µM
- Glucuronidation [4]: not a substrate for glucuronidation; also recorded: no detectable glucuronidation
